According to patent US20080107619A1, “Carbohydrate based cellulase inhibitors as feeding stimulants in termites” (University of Florida Research Foundation, Inc., priority 2006, published 2008):
Entries after “also recorded” stand apart in the source; their conditions may differ.

Experiments:
[1] = test system: R. flavipes worker termites; assay: Validative feeding bioassays with mono- and di-saccharides; type: in vivo; settings: no-choice tests; concentrations tested 0.004-3.0% wt/wt; FIG. 12A
[2] = test system: Formosan Subterranean Termite β-glucosidases; settings: after feeding; Zhu et al.; cited from earlier work
R. virginicus = settings: choice tests; Waller et al.; cited from earlier work
R. flavipes = settings: choice tests; Waller et al.; cited from earlier work

OC[C@H]1O[C@H](O[C@H]2[C@H](O)[C@@H](O)C(O)O[C@@H]2CO)[C@H](O)[C@@H](O)[C@@H]1O (mixture of isomers) [maltose]
feeding stimulation [1]: generally a feeding deterrent; also recorded: no significant feeding stimulation

COc1cc(C=CC(=O)O)cc(OC)c1O (stereo in doubt) [sinapinic acid]
inhibition [2]: completely ineffective

O=C[C@H](O)[C@@H](O)[C@H](O[C@@H]1O[C@H](CO)[C@@H](O)[C@H](O)[C@H]1O)[C@H](O)CO [cellobiose]
feeding stimulation [1]: no significant feeding stimulation

OC[C@H]1O[C@@](CO)(O[C@H]2O[C@H](CO)[C@@H](O)[C@H](O)[C@H]2O)[C@@H](O)[C@@H]1O [sucrose]
consumption of treated paper substrates versus untreated controls (R. virginicus): consumed more paper substrates | consumption of treated paper substrates versus untreated controls (R. flavipes): consumed more paper substrates

O=C[C@H](O)[C@@H](O)[C@H](O)CO [xylose]
consumption of treated paper substrates versus untreated controls (R. virginicus): consumed more paper substrates | consumption of treated paper substrates versus untreated controls (R. flavipes): consumed more paper substrates
